In US12215116B2, “Arginase inhibitors and methods of use” (Merck Sharp & Dohme LLC, priority 2018, dated 2025):
pIC50: −log10 of the molar value. Where a name gives a salt, the structure may show the parent alone.

target: T1, Arginase (ARG1 enzyme) (Homo sapiens, UniProt P05089); test: Arginase Thioornithine Generating Assay (TOGA); assay type: biochemical; conditions: 1.88 nM arginase, thioarginine substrate, fluorescence readout
T1 construct: made in house; host or cells: Escherichia coli
T1 sequence (P05089 1-322): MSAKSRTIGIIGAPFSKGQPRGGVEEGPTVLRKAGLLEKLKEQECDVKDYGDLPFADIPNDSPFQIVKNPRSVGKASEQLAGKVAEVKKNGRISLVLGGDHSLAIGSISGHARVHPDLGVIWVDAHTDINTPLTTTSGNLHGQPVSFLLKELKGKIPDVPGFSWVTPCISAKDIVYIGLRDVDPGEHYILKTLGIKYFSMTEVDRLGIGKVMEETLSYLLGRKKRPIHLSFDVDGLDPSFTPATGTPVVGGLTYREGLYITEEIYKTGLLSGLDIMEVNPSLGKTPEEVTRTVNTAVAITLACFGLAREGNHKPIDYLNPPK
Procedure: Arginase Thioornithine Generating Assay (TOGA)
Compounds were serially diluted in ten 3-fold steps in DMSO starting from 10 mM DMSO stocks. Compound dilutions or DMSO alone were then dispensed from the dilution plate into a Greiner black 384-well assay plate (catalog #781086) using an Echo 555 acoustic liquid handler (Labcyte).
Arginase protein was recombinantly expressed in Escherichia coli. Purified protein was then diluted in assay buffer (50 mM Tris pH 7.5, 50 mM NaCl, 1 mM manganese chloride, 0.05% bovine serum albumin to obtain a final Arginase concentration of 1.88 nM. Arginase solution (20 μL) or buffer alone (20 μL) were dispensed to wells of the assay plate using a BioRAPTR liquid dispenser (Beckman Coulter). Assay plates containing compound and ARG1 enzyme were incubated at room temperature for 30 minutes. Afterwards, 5 μL of 2.5 mM thioarginine (Cayman Chemicals) in assay buffer were added to each well of the assay plate using a BioRAPTR liquid dispenser. Plates were incubated at room temperature for 60 minutes and reactions were quenched by addition of 15 μL of […] 7-Diethylamine-3-(4-maleimidophenyl)-4-methylcoumarin (Sigma Chemical) in 70% ethanol. Plates were briefly shaken to mix and the fluorescence was measured in an Spectramax plate reader (Molecular Devices) with a 410 nm excitation wavelength and an 490 nm emission wavelength.
Potencies were calculated by […] to the four parameter logistic IC50 equation.

Row | Compound | pIC50
1 | CC(C)[C@H](N)C(=O)N[C@H]1CN[C@H](C(=O)O)[C@]1(C)CCCB(O)O [Example 70, (2S,3R,4R)-4-((S)-2-amino-3-methylbutanamido)-3-(3-boronopropyl)-3-methylpyrrolidine-2-carboxylic acid] | 7.08
2 | O=C(O)[C@@]1(CCN2CCCC2)NCC[C@H]1CCCB(O)O [Example 55] | 7.80
3 | C[C@@]1(CCCB(O)O)[C@@H](CN)CN[C@@H]1C(=O)O [Example 77, (2S,3R,4S)-4-(aminomethyl)-3-(3-boronopropyl)-3-methylpyrrolidine-2-carboxylic acid] | 7.07
4 | O=C(O)C1(CCN2CCCCC2)NCCC1CCCB(O)O (centres unmarked) [Example 11, 3-(3-boronopropyl)-2-(2-(piperidin-1-yl)ethyl)pyrrolidine-2-carboxylic acid] | 7.08
5 | CN(C)CC[C@]1(C(=O)O)NCC[C@H]1CCCB(O)O [Example 54, (2S,3R)-3-(3-boronopropyl)-2-(2-(dimethylamino)ethyl)pyrrolidine-2-carboxylic acid] | 7.50
6 | N[C@@]1(C(=O)O)CNC[C@@]1(CO)CCCB(O)O [Example 94C] | < 5.00
7 | C[C@@]1(CCCB(O)O)[C@@H](CO)CN[C@@H]1C(=O)O [Example 80, (2S,3R,4R)-3-(3-boronopropyl)-4-(hydroxymethyl)-3-methylpyrrolidine-2-carboxylic acid] | 7.56
8 | NCC1(C(=O)O)CCC(CCB(O)O)C1 (mixture of isomers) [Example 95, 1-(aminomethyl)-3-(2-boronoethyl)cyclopentane-1-carboxylic acid] | < 5.00
9 | CC1(C)[C@H]2C[C@@H]3OB(CCC[C@]4(C)CCN[C@@H]4C(=O)O)O[C@]3(C)[C@@H]1C2 [Example 22, (2S,3R)-3-methyl-3-(3-((3aR,4R,6R,7aS)-3a,5,5-trimethylhexahydro-4,6-methanobenzo[d][1,3,2]dioxaborol-2-yl)propyl)pyrrolidine-2-carboxylic acid] | 6.82
10 | O=C(O)[C@H]1NCC[C@@H]1CCCB(O)O [Example 15B, (3S)-3-[3-(dihydroxyboranyl)propyl]-L-proline] | 6.38
11 | C[C@]1(CCCB(O)O)[C@@H](C(=O)O)NC[C@@H]1C(F)F [Example 81, (2S,3R,4R)-3-(3-boronopropyl)-4-(difluoromethyl)-3-methylpyrrolidine-2-carboxylic acid] | 6.86
12 | C[C@H]1N[C@H](C(=O)O)[C@](C)(CCCB(O)O)[C@H]1O [Example 74A, (2S,3S,4R,5R)-3-(3-boronopropyl)-4-hydroxy-3,5-dimethylpyrrolidine-2-carboxylic acid] | 7.31
13 | CC[C@H](C)[C@H](N)C(=O)N[C@H]1CN[C@H](C(=O)O)[C@@H]1CCCB(O)O [Example 45, (2S,3R,4R)-4-((2S,3S)-2-amino-3-methylpentanamido)-3-(3-boronopropyl)pyrrolidine-2-carboxylic acid] | 8.70
14 | O=C(O)C1(CCN2CCCCC2)CC(CCB(O)O)CCN1 (centres unmarked) [Example 5, 4-[2-(dihydroxyboranyl)ethyl]-2-[2-(piperidin-1-yl)ethyl]piperidinyl-2-carboxylic acid] | 5.88
15 | O=C(O)C[C@@]1(CCCB(O)O)[C@H](O)CN[C@@H]1C(=O)O [Example 90, (2S,3R,4S)-3-(3-boronopropyl)-3-(carboxymethyl)-4-hydroxypyrrolidine-2-carboxylic acid] | 5.54
16 | N[C@]1(C(=O)O)CNC[C@]1(CO)CCCB(O)O [Example 94D] | < 5.00
17 | O=C(O)[C@H]1NC[C@H](NCC(F)(F)F)[C@H]1CCCB(O)O [Example 26, (2S,3R,4R)-3-(3-boronopropyl)-4-((2,2,2-trifluoroethyl)amino)pyrrolidine-2-carboxylic acid] | 6.92
18 | C[C@@]1(CCCB(O)O)CCN[C@]1(C)C(=O)O [Example 72, (2S,3R)-3-(3-boronopropyl)-2,3-dimethylpyrrolidine-2-carboxylic acid] | 6.92
19 | CN1C[C@@](CO)(CCCB(O)O)[C@H]1C(=O)O [Example 66, (2S,3S)-3-(3-boronopropyl)-3-(hydroxymethyl)-1-methylazetidine-2-carboxylic acid] | 6.57
20 | NC1(C(=O)O)CNCC1(CO)CCCB(O)O (single isomer, unassigned) [Example 94A, 3-amino-4-(3-boronopropyl)-4-(hydroxymethyl)pyrrolidine-3-carboxylic acid] | 5.51

Other lines, results leading:

Row | pIC50 | Compound
21 | 6.01 | C[C@H](N)C(=O)N(C)[C@H]1CN[C@H](C(=O)O)[C@@H]1CCCB(O)O [Example 51, (2S,3S,4R)-4-((S)-2-amino-N-methylpropanamido)-3-(3-boronopropyl)pyrrolidine-2-carboxylic acid]
22 | < 5.00 | O=C(O)[C@H]1NC[C@@H](O)[C@@]1(F)CCCB(O)O [Example 92A, (2R,3R,4R)-3-(3-boronopropyl)-3-fluoro-4-hydroxypyrrolidine-2-carboxylic acid]
23 | < 5.00 | O=C(O)[C@H]1NC[C@@H](O)[C@H]1CCCB(O)O [Example 20B, (3S,4S) 3-[3-(dihydroxyboranyl)propyl]-4-hydroxy-L-proline]
24 | 7.80 | C[C@@]1(CCCB(O)O)CCN[C@@H]1C(=O)O [Example 14, (3R)-3-[3-(dihydroxyboranyl)propyl]-3-methyl-L-proline]
25 | 5.42 | OCC1NCCC1CCCB(O)O (centres unmarked) [Example 12, {3-[2-(hydroxymethyl)pyrrolidin-3-yl]propyl}boronic acid]
26 | 7.99 | CC(C)(O)[C@H](N)C(=O)N[C@H]1CN[C@H](C(=O)O)[C@@H]1CCCB(O)O [Example 39, (2S,3R,4R)-4-((S)-2-amino-3-hydroxy-3-methylbutanamido)-3-(3-boronopropyl)pyrrolidine-2-carboxylic acid]
27 | < 5.00 | O=C(O)C1CNCC1CCCB(O)O (single isomer, unassigned) [Example 21A, 4-[3-(dihydroxyboranyl)propyl]pyrrolidine-3-carboxylic acid]
28 | < 5.00 | O=C(O)[C@@H]1NCC[C@H]1CCCB(O)O [Example 15A, (3R)-3-[3-(dihydroxyboranyl)propyl]-D-proline]
29 | 7.71 | O=C(O)[C@H]1NCC[C@@]1(CO)CCCB(O)O [Example 83, (2S,3S)-3-(3-boronopropyl)-3-(hydroxymethyl)pyrrolidine-2-carboxylic acid]
30 | 7.45 | CC(C)[C@@H](N)C(=O)N[C@H]1CN[C@H](C(=O)O)[C@@H]1CCCB(O)O [Example 46, (2S,3R,4R)-4-((R)-2-amino-3-methylbutanamido)-3-(3-boronopropyl)pyrrolidine-2-carboxylic acid]
31 | 5.06 | O=C(O)[C@@H]1CC(CCB(O)O)CN1 (some centres unmarked) [Example 18, 4-[2-(dihydroxyboranyl)ethyl]proline]
32 | 5.83 | O=C(O)[C@@]1(CCO)NCC[C@H]1CCCB(O)O [Example 53, (2S,3R)-3-(3-boronopropyl)-2-(2-hydroxyethyl)pyrrolidine-2-carboxylic acid]
33 | 6.95 | NC[C@]1(C(=O)O)NCC[C@H]1CCCB(O)O (relative stereo) [Example 57A, 2-(aminomethyl)-3-(3-boronopropyl)pyrrolidine-2-carboxylic acid]
34 | 5.46 | NCC1CN[C@H](C(=O)O)C1CCCB(O)O (stereo partly drawn) [Example 34, (2S)-4-(aminomethyl)-3-(3-boronopropyl)pyrrolidine-2-carboxylic acid]
35 | 7.07 | CCN[C@H]1CN[C@H](C(=O)O)[C@@H]1CCCB(O)O [Example 30, (2S,3R,4R)-3-(3-boronopropyl)-4-(ethylamino)pyrrolidine-2-carboxylic acid]
36 | 7.04 | O=C(O)[C@H]1NCC[C@H]1SCCB(O)O [Example 93, (2R,3R)-3-((2-boronoethyl)thio)pyrrolidine-2-carboxylic acid hydrochloride]
37 | 8.70 | CC[C@@H](C)[C@H](N)C(=O)N[C@H]1CN[C@H](C(=O)O)[C@@H]1CCCB(O)O [Example 44, (2S,3R,4R)-4-((2S,3R)-2-amino-3-methylpentanamido)-3-(3-boronopropyl)pyrrolidine-2-carboxylic acid]
38 | 7.54 | CC(C)[C@](C)(N)C(=O)N[C@H]1CN[C@H](C(=O)O)[C@@H]1CCCB(O)O [Example 47, (2S,3R,4R)-4-((S)-2-amino-2,3-dimethylbutanamido)-3-(3-boronopropyl)pyrrolidine-2-carboxylic acid]
39 | < 5.00 | C[C@@]1(CCCB(O)O)[C@H](O)CN[C@@H]1C(=O)O [Example 69, (2S,3S,4S)-3-(3-boronopropyl)-4-hydroxy-3-methylpyrrolidine-2-carboxylic acid]
40 | 6.88 | O=C(O)[C@]1(CO)NCC[C@H]1CCCB(O)O (single isomer, unassigned) [Example 59B]
41 | 5.24 | NC[C@]1(C(=O)O)NCC[C@H]1CCCB(O)O (single isomer, unassigned) [Example 57B]
